Where only a bound is given, the exact number is not on record here.

The target of the assay is ROCK2 (Homo sapiens (Human), UniProt O75116). The experiment in a line: ROCK2 kinase inhibition assay (FITC peptide substrate, LABCHIP 3000 Reader). To be noted: 5 μM ATP, 1.5 μM peptide substrate. The class given is biochemical. The procedure, abridged: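 Reaction in 20 mM HEPES pH 7.5, 20 mM MgCl2, 0.015% Brij-35, 4 mM DTT with 5 μM ATP and 1.5 μM FITC-AHA-AKRRRLSSLRA-OH peptide, started with Rho kinase, DMSO <2%. EDTA-stopped; phospho and non-phospho peptide separated by mobility shift. IC50 from dose-response curve fit.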
Chain of ROCK2 (O75116 whole entry, species assumed): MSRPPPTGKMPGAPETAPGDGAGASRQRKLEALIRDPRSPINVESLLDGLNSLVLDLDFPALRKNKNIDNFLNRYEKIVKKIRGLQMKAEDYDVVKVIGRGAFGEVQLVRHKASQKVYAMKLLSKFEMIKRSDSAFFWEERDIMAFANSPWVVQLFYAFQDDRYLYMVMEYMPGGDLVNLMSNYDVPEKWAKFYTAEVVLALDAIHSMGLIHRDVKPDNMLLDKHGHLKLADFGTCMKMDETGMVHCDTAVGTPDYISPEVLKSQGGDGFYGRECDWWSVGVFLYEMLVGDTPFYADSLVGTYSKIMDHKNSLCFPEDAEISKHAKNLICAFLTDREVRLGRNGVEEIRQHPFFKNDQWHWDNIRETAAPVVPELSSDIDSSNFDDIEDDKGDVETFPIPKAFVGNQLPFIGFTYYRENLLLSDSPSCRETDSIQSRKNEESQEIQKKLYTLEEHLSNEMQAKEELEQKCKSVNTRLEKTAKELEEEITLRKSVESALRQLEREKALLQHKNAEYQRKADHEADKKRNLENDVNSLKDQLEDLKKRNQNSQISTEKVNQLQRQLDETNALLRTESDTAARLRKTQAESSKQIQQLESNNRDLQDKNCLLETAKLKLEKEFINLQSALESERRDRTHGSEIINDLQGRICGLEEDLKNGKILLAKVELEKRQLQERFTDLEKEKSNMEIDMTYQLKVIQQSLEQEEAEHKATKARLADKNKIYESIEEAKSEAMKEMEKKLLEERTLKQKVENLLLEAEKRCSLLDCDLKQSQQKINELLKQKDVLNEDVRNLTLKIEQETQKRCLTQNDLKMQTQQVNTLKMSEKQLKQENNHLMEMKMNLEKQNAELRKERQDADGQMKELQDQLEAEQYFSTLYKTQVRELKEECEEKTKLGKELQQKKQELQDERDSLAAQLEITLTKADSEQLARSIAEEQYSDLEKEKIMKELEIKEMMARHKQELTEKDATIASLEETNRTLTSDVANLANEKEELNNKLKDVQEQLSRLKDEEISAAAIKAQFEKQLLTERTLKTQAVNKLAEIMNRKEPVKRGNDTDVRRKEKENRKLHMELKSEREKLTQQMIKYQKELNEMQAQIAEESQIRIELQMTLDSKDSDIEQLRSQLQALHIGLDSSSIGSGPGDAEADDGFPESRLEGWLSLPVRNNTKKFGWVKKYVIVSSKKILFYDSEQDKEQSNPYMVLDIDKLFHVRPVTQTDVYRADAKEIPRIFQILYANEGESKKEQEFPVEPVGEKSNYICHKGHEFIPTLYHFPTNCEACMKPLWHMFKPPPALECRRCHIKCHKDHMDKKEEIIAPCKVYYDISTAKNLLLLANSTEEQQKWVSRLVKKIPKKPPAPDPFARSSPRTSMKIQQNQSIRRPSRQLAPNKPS
Take `O=C1N(c2ccc(-c3cn[nH]c3)cc2)CC2(CCNCC2)N1Cc1cccc(F)c1F` [Example 64]: the IC50 (as a rule, the concentration that inhibits the measured activity by half) lay in the range of 3 to 30 nM. In turn, `COc1cccc(CN2C(=O)N(c3ccc(-c4cn[nH]c4)cc3)CC23CCN(C(C)=O)CC3)c1` [Example 76, 3-(4-(1H-pyrazol-4-yl)phenyl)-8-acetyl-1-(3-methoxybenzyl)-1,3,8-triazaspiro[4.5]decan-2-one] registered an IC50 of less than 3 nM. As to `CN(C(=O)c1cccc(CN2C(=O)N(c3ccc(-c4cn[nH]c4)cc3)CC23CCOCC3)c1)C1CC1` [Example 45, 3-((3-(4-(1H-pyrazol-4-yl)phenyl)-2-oxo-8-oxa-1,3-diazaspiro[4.5]decan-1-yl)methyl)-N-cyclopropyl-N-methylbenzamide], the IC50 was less than 3 nM. `CC(=O)N1CCC2(CC1)CN(c1ccc(-c3cn[nH]c3)cc1)C(=O)N2Cc1ccc(F)cc1F` [Example 81, 3-(4-(1H-pyrazol-4-yl)phenyl)-8-acetyl-1-(2,4-difluorobenzyl)-1,3,8-triazaspiro[4.5]decan-2-one] came in with an IC50 of 30 to 250 nM. `COc1ccc(CCC(=O)N2CCC3(CC2)CN(c2ccc(-c4cn[nH]c4)cn2)C(=O)C3Nc2cccc(OC)c2)cc1` (stereo not shown) [Example 255, -(5-(1H-pyrazol-4-yl)pyridin-2-yl)-4-((3-methoxy-phenyl)amino)-8-(3-(4-methoxy-phenyl)propanoyl)-2,8-diazaspiro [4.5]decan-3-one]: the IC50 lay within 250 to 3000 nM. In the case of `COc1cccc(CN2C(=O)N(c3ccc(-c4cn[nH]c4)cc3)CC23CC[N+]([O-])(CCO)CC3)c1` (stereo not shown) [Example 145, 3-(4-(1H-pyrazol-4-yl)phenyl)-8-(2-hydroxyethyl)-1-(3-methoxybenzyl)-2-oxo-1,3,8-triazaspiro[4.5]decane 8-oxide], the half-maximal inhibitory concentration (IC50) is less than 3 nM. In turn, `CCc1nc(N2CC3(CCN(C(=O)C(C)O)CC3)N(Cc3cc(F)cc(OC)c3)C2=O)ccc1-c1cn[nH]c1` (stereo not shown) [Example 188, 3-(6-ethyl-5-(1H-pyrazol-4-yl)pyridin-2-yl)-1-(3-fluoro-5-methoxybenzyl)-8-(2-hydroxypropanoyl)-1,3,8-triazaspiro[4.5]decan-2-one] yielded an IC50 of less than 3 nM. In turn, `COc1cccc(CN2C(=O)N(c3ccc(-c4cn[nH]c4)cc3)CC23CCN(CC2CCCC2)CC3)c1` [Example 118, 3-(4-(1H-pyrazol-4-yl)phenyl)-8-(cyclopentylmethyl)-1-(3-methoxybenzyl)-1,3,8-triazaspiro[4.5]decan-2-one] registered an IC50 of less than 3 nM. The compound `COc1cccc(CN2C(=O)N(c3ccc(-c4cn[nH]c4)cc3)CC23CCN(C(=O)C2CCC(F)(F)CC2)CC3)c1` [Example 171, 3-(4-(1H-pyrazol-4-yl)phenyl)-8-(4,4-difluorocyclohexanecarbonyl)-1-(3-methoxybenzyl)-1,3,8-triazaspiro[4.5]decan-2-one] returned an IC50 of less than 3 nM.

Turning to `COc1cccc(CN2C(=O)N(c3ccc(-c4cn[nH]c4)cc3)CC23CC3)c1` [Example 1, 6-(4-(1H-pyrazol-4-yl)phenyl)-4-(3-methoxybenzyl)-4,6-diazaspiro[2.4]heptan-5-one], the IC50 was less than 3 nM. `COc1nc(N2CC3(CCN(CC(F)F)CC3)N(Cc3cccc(F)c3C)C2=O)ccc1-c1cn[nH]c1` [Example 137] displayed an IC50 of less than 3 nM. Take `CCCN1CCC2(CC1)CN(c1ccc(-c3cn[nH]c3)cc1)C(=O)N2Cc1cccc(OC)c1` [Example 116, 3-(4-(1H-pyrazol-4-yl)phenyl)-1-(3-methoxybenzyl)-8-propyl-1,3,8-triazaspiro[4.5]decan-2-one]: the IC50 is less than 3 nM. Under `COc1cccc(CN2C(=O)N(c3ncc(-c4cn[nH]c4)c(OC)n3)CC23CCN(C(=O)C(C)(C)O)CC3)c1` [Example 212, 8-(2-hydroxy-2-methylpropanoyl)-3-(4-methoxy-5-(1H-pyrazol-4-yl)pyrimidin-2-yl)-1-(3-methoxybenzyl)-1,3,8-triazaspiro[4.5]decan-2-one] stands 3 to 30 nM.

(Values after patent US10787450B2 (BRISTOL-MYERS SQUIBB COMPANY, priority 2016, dated 2020).)
